Measured values published in US20160257697A1, “THIOPHENE-SUBSTITUTED TETRACYCLIC COMPOUNDS AND METHODS OFUSE THEREOF FOR THE TREATMENT OF VIRAL DISEASES” (priority 2013, published 2016).
Read-outs that look alike come from different tables or passages of the source.

Experiments:
Assay in all cases: microbe, parasite or virus in culture
Format in all cases: cell-based, Hepatitis C virus (HCV)
Conditions in all cases: Replicon Assay A
HCV replicon 1AY93H = tested on: HCV replicon 1AY93H
In short: (§1)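 HCV RNA levels were calculated from Ct values (minus intercept, divided by slope) of a Neo primer/probe standard curve, with cyclophilin quantified the same way. Cells were seeded at 2000/well and incubated with compound for 3 days in 5% serum and 0.5% DMSO.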

HCV replicon 1A = tested on: HCV replicon 1A
In short: as §1

HCV replicon 2B = tested on: HCV replicon 2B
In short: as §1

[1] = read-out: 1A Y93H IC50, HCV replicon 1A Y93H
[2] = read-out: 2B IC50, HCV replicon 2B
[3] = read-out: 1A Y93H IC50, replicon 1AY93H
[4] = Hepatitis C virus, read-out: 1A Y93H IC50, HCV replicon 1A Y93H
[5] = Hepatitis C virus, HCV replicon 1A
[6] = Hepatitis C virus, read-out: 2B IC50, HCV replicon 2B

| SMILES | IC50 (HCV replicon 1AY93H; [3]) | IC50 (HCV replicon 1A; replicon 1A) | IC50 (HCV replicon 2B; read-out: 2B IC50, replicon 2B) | other results |
| --- | --- | --- | --- | --- |
| COC(=O)N[C@H](C(=O)N1CCC[C@H]1c1ncc(-c2ccc3c(c2)OC(c2cc4sccc4s2)n2c-3cc3cc(-c4c[nH]c([C@@H]5C[C@H]6C[C@H]6N5C(=O)[C@@H](NC(=O)OC)C(C)C)n4)ccc32)[nH]1)C(C)C (single isomer, unassigned) [Compound 717] | – | – | – | IC50 (HCV replicon 1AY93H; [1]): 200 pM; IC50 (HCV replicon 1A; HCV replicon 1A): 24 pM; IC50 (HCV replicon 2B; [2]): 1160 pM |
| COC(=O)N[C@H](C(=O)N1CCC[C@H]1c1ncc(-c2cc(F)c3c(c2)OC(c2cc4c(s2)CCC4)n2c-3cc3cc(-c4cnc([C@@H]5C[C@H]6C[C@H]6N5C(=O)[C@@H](NC(=O)OC)C5C[C@@H](C)O[C@@H](C)C5)[nH]4)ccc32)[nH]1)C(C)C (single isomer, unassigned) [Compound 552] | – | – | – | IC50 (HCV replicon 1AY93H; [1]): 839 pM; IC50 (HCV replicon 1A; HCV replicon 1A): 9.78 pM; IC50 (HCV replicon 2B; [2]): 409 pM |
| COC(=O)NC(C(=O)N1CCC[C@H]1c1ncc(-c2cc(F)c3c(c2)OC(c2ccc(C4CC4)s2)n2c-3cc3cc(-c4cnc([C@@H]5CCCN5C(=O)[C@@H](NC(=O)OC)C5CCOCC5)[nH]4)ccc32)[nH]1)C(C)(C)F (single isomer, unassigned) [Compound 171] | 1400 pM | 13.1 pM | 4060 pM | – |
| COC(=O)N[C@H](C(=O)N1CCC[C@H]1c1cnc(-c2ccc3c(c2)cc2n3C(c3cc4ccccc4s3)Oc3cc(-c4cnc([C@@H]5CCCN5C(=O)[C@@H](NC(=O)OC)C5CCOCC5)[nH]4)ccc3-2)[nH]1)C1CCOCC1 (single isomer, unassigned) [Compound 810] | – | – | – | IC50 (HCV replicon 1AY93H; [1]): 18 pM; IC50 (HCV replicon 1A; HCV replicon 1A): 4 pM; IC50 (HCV replicon 2B; [2]): 5 pM |
| CCN(CC)[C@@H](C(=O)N1C[C@H](F)C[C@H]1c1nc(-c2ccc3c(c2)OC(c2ccc(C4CC4)s2)n2c-3cc3cc(-c4c[nH]c([C@@H]5C[C@@H](F)CN5C(=O)[C@@H](c5ccccc5)N(CC)CC)n4)ccc32)c[nH]1)c1ccccc1 (mixture of isomers) [Compound 733] | – | – | – | IC50 (HCV replicon 1AY93H; [4]): 350 pM; IC50 (HCV replicon 1A; [5]): 45 pM; IC50 (HCV replicon 2B; [6]): 63 pM |
| COC(=O)N[C@H](C(=O)N1CCC[C@H]1c1ncc(-c2cc(F)c3c(c2)OC(c2sc(C4CC4)cc2C)n2c-3cc3cc(-c4cnc([C@@H]5CCCN5C(=O)[C@@H](NC(=O)OC)C(C)C)[nH]4)ccc32)[nH]1)C(C)C (single isomer, unassigned) [Compound 328] | 2800 pM | – | 1730 pM | IC50 (HCV replicon 1A; Hepatitis C virus, replicon 1A): 1 pM |
| CCc1ccc(C2Oc3cc(-c4cnc([C@@H]5CCCN5C(=O)[C@@H](NC(=O)OC)C(C)C)[nH]4)cc(F)c3-c3cc4cc(-c5cnc([C@@H]6CCCN6C(=O)C(NC(=O)OC)C6CCOC(C)(C)C6)[nH]5)ccc4n32)s1 (single isomer, unassigned) [Compound 153] | 422 pM | 2.1 pM | 510 pM | – |
| COC(=O)NC(C(=O)N1CCC[C@H]1c1ncc(-c2ccc3c(c2)cc2n3C(c3ccc(C4CC4)s3)Oc3cc(-c4cnc([C@@H]5CCCN5C(=O)[C@@H](NC(=O)OC)C5CCOCC5)[nH]4)cc(F)c3-2)[nH]1)C(C)(C)F (single isomer, unassigned) [Compound 174] | 614 pM | 1.1 pM | 160 pM | – |
| COC(=O)NC(C(=O)N1CCC[C@H]1c1ncc(-c2ccc3c(c2)cc2n3C(c3ccc(C4CC4)s3)Oc3cc(-c4cnc([C@@H]5CCCN5C(=O)[C@@H](NC(=O)OC)C(C)C)[nH]4)cc(F)c3-2)[nH]1)C1C[C@H](C)O[C@@H](C)C1 (single isomer, unassigned) [Compound 404] | 1250 pM | 2.2 pM | 1670 pM | – |
| COC(=O)NC(C(=O)N1[C@@H]2C[C@@H]2C[C@H]1c1ncc(-c2ccc3c(c2)cc2n3C(c3ccc(C4CC4)s3)Oc3cc(-c4cnc([C@@H]5CCCN5C(=O)[C@@H](NC(=O)OC)C(C)C)[nH]4)cc(F)c3-2)[nH]1)C1CCOC(C)(C)C1 (single isomer, unassigned) [Compound 278] | 161 pM | 1.8 pM | 300 pM | – |
| COC(=O)N[C@H](C(=O)N1C[C@H](F)C[C@H]1c1ncc(-c2ccc3c(c2)OC(c2cc4ccccc4s2)n2c-3cc3cc(-c4cnc([C@@H]5C[C@@H](F)CN5C(=O)[C@@H](NC(=O)OC)C5CCOCC5)[nH]4)ccc32)[nH]1)C(C)C (mixture of isomers) [Compound 807] | – | – | – | IC50 (HCV replicon 1AY93H; [4]): 25 pM; IC50 (HCV replicon 1A; [5]): 3 pM; IC50 (HCV replicon 2B; [6]): 2000 pM |
| COC(=O)N[C@H](C(=O)N1CCC[C@H]1c1ncc(-c2cc(C)c3c(c2)OC(c2cc4c(s2)CCC4)n2c-3cc3cc(-c4cnc([C@@H]5CCCN5C(=O)[C@@H](NC(=O)OC)C5CCOCC5)[nH]4)ccc32)[nH]1)C(C)C (single isomer, unassigned) [Compound 540] | – | – | – | IC50 (HCV replicon 1AY93H; [4]): 2140 pM; IC50 (HCV replicon 1A; [5]): 8.59 pM; IC50 (HCV replicon 2B; [6]): 147 pM |
| COC(=O)NC(C(=O)N1[C@@H]2C[C@@H]2C[C@H]1c1ncc(-c2ccc3c(c2)c(F)c2n3C(c3ccc(C4CC4)s3)Oc3cc(-c4cnc([C@@H]5CCCN5C(=O)[C@@H](NC(=O)OC)C(C)C)[nH]4)cc(F)c3-2)[nH]1)C1CCOC(C)(C)C1 (single isomer, unassigned) [Compound 423] | – | – | – | IC50 (HCV replicon 1AY93H; [1]): 4.2 pM; IC50 (HCV replicon 1A; HCV replicon 1A): 2.1 pM; IC50 (HCV replicon 2B; [2]): 9.6 pM |
| COC(=O)N[C@H](C(=O)N1CCC[C@H]1c1ncc(-c2ccc3c(c2)OC(c2cc4ccccc4s2)n2c-3cc3cc(-c4cnc([C@@H]5C[C@@H](F)CN5C(=O)[C@@H](NC(=O)OC)C5CCOCC5)[nH]4)ccc32)[nH]1)C1CCOCC1 (single isomer, unassigned) [Compound 812] | – | – | – | IC50 (HCV replicon 1AY93H; [1]): 440 pM; IC50 (HCV replicon 1A; [5]): 34 pM; IC50 (HCV replicon 2B; [2]): 150 pM |
| COC(=O)N[C@H](C(=O)N1CCC[C@H]1c1ncc(-c2cc(F)c3c(c2)OC(c2ccc(CC(C)C)s2)n2c-3cc3cc(-c4cnc([C@@H]5CCCN5C(=O)[C@@H](NC(=O)OC)C(C)C)[nH]4)ccc32)[nH]1)C(C)C (single isomer, unassigned) [Compound 522] | – | – | – | IC50 (HCV replicon 1AY93H; [1]): 77.6 pM; IC50 (HCV replicon 1A; HCV replicon 1A): 23.9 pM; IC50 (HCV replicon 2B; [2]): 417 pM |
| COC(=O)N[C@H](C(=O)N1CCC[C@H]1c1ncc(-c2cc(C)c3c(c2)OC(c2ccc(C4CC4)s2)n2c-3cc3cc(-c4cnc([C@@H]5CCCN5C(=O)[C@@H](NC(=O)OC)C(C)C)[nH]4)ccc32)[nH]1)C(C)C (single isomer, unassigned) [Compound 752] | – | – | – | IC50 (HCV replicon 1AY93H; [1]): 2700 pM; IC50 (HCV replicon 1A; HCV replicon 1A): 2.8 pM; IC50 (HCV replicon 2B; [2]): 600 pM |
| COC(=O)NC(C(=O)N1CCC[C@H]1c1ncc(-c2cc(F)c3c(c2)OC(c2ccc(C4CC4)s2)n2c-3cc3cc(-c4cnc([C@@H]5CCCN5C(=O)[C@@H](NC(=O)OC)C(C)C)[nH]4)ccc32)[nH]1)C1CCOC(C)(C)C1 (single isomer, unassigned) [Compound 212] | 6070 pM | 68.1 pM | 8590 pM | – |
| COC(=O)NC(C(=O)N1CCC[C@H]1c1ncc(-c2ccc3c(c2)cc2n3C(c3ccc(C4CC4)s3)Oc3cc(-c4cnc([C@@H]5CCCN5C(=O)[C@@H](NC(=O)OC)C(C)C)[nH]4)cc(F)c3-2)[nH]1)C1CCO[C@H](C)C1 (single isomer, unassigned) [Compound 137] | 280 pM | 1.8 pM | 370 pM | – |
| COC(=O)NC(C(=O)N1CCC[C@H]1c1ncc(-c2ccc3c(c2)cc2n3C(c3ccc(C4CC4)s3)Oc3cc(-c4cnc([C@@H]5CCCN5C(=O)[C@@H](NC(=O)OC)C(C)C)[nH]4)cc(F)c3-2)[nH]1)C1CCOC(C)(C)C1 (single isomer, unassigned) [Compound 222] | 240 pM | 2 pM | 170 pM | – |
| COC(=O)NC(C(=O)N1CCC[C@H]1c1ncc(-c2cc(F)c3c(c2)OC(c2ccc(C4CC4)s2)n2c-3cc3cc(-c4cnc([C@@H]5CCCN5C(=O)[C@@H](NC(=O)OC)C(C)C)[nH]4)ccc32)[nH]1)C1CCOC(C)(C)C1 (single isomer, unassigned) [Compound 211] | 220 pM | 2.6 pM | 420 pM | – |
| COC(=O)NC(C(=O)N1CCC[C@H]1c1ncc(-c2cc(F)c3c(c2)OC(c2ccc(C4CC4)s2)n2c-3cc3cc(-c4cnc([C@@H]5CCCN5C(=O)C(NC(=O)OC)C(C)(C)F)[nH]4)ccc32)[nH]1)C(C)(C)F (single isomer, unassigned) [Compound 110] | 1970 pM | – | 2430 pM | IC50 (HCV replicon 1A; Hepatitis C virus, replicon 1A): 2 pM |
| COC(=O)N[C@H](C(=O)N1CCC[C@H]1c1ncc(-c2cc(F)c3c(c2)OC(c2cc(F)c(C4CC4)s2)n2c-3cc3cc(-c4cnc([C@@H]5CCCN5C(=O)[C@@H](NC(=O)OC)C(C)C)[nH]4)ccc32)[nH]1)C(C)C (single isomer, unassigned) [Compound 71] | 1090 pM | – | 3850 pM | IC50 (HCV replicon 1A; Hepatitis C virus, replicon 1A): 1.3 pM |
| COC(=O)NC(C(=O)N1[C@@H]2C[C@@H]2C[C@H]1c1ncc(-c2ccc3c(c2)cc2n3C(c3ccc(C4CC4)s3)Oc3cc(-c4cnc([C@@H]5CCCN5C(=O)[C@@H](NC(=O)OC)C(C)C)[nH]4)cc(F)c3-2)[nH]1)C1C[C@@H](C)O[C@@H](C)C1 (single isomer, unassigned) [Compound 274] | 7870 pM | 22 pM | – | – |
| COC(=O)N[C@H](C(=O)N1CCC[C@H]1c1ncc(-c2cc(F)c3c(c2)OC(c2ccc(CC(C)(C)OC)s2)n2c-3cc3cc(-c4cnc([C@@H]5CCCN5C(=O)[C@@H](NC(=O)OC)C(C)C)[nH]4)ccc32)[nH]1)C(C)C (single isomer, unassigned) [Compound 843] | – | – | – | IC50 (HCV replicon 1AY93H; HCV replicon 1A Y93H, read-out: 1A Y93H IC50): 329 pM; IC50 (HCV replicon 1A; HCV replicon 1A): 2.2 pM |
| COC(=O)NC(C(=O)N1CCC[C@H]1c1ncc(-c2ccc3c(c2)cc2n3C(c3cc(C)c(C)s3)Oc3cc(-c4cnc([C@@H]5CCCN5C(=O)[C@@H](NC(=O)OC)C(C)C)[nH]4)cc(F)c3-2)[nH]1)C(C)(C)F (single isomer, unassigned) [Compound 41] | 2450 pM | 2 pM | – | – |
